Read-outs that look alike come from different tables or passages of the source.
Columns and labels:
[1] = system: human naïve CFSE+ CD8+ T cells; settings: for CFSE^+ CD8^+ T cells (%)^*: live and non-apoptotic gates not applied
Source text: Peripheral blood mononuclear cells (PBMCs) were isolated from Trima Accel leukocyte reduction system (LRS) chambers (Terumo BCT, Lakewood, CO) of de-identified healthy blood donors (Stanford Blood Center, Palo Alto, CA) using Ficoll-Paque Plus (GE Healthcare, Chicago, IL, USA) density gradient centrifugation according to manufacturer's instructions. For long-term storage, PBMCs were resuspended in FBS with 10% DMSO and stored in liquid nitrogen at density 1-5×10^7 cells/mL. Cryopreserved PBMCs were thawed into cell culture medium (CCM; RPMI 1640 containing 10% FBS, 1× L-glutamine, and 1× penicillin/streptomycin; Thermo Fisher Scientific Waltham, MA, USA) supplemented with 25 U/mL benzonase (SIGMA-ALDRICH®, St. Louis, MO, USA). Cells were then pelleted for 5 minutes at 250×g, resuspended in 10 mL CCM, rested at 37° C., 5% CO2 for 60 minutes, filtered through a 40 μm strainer, and counted. Where indicated, naïve T cells were enriched using Naïve Pan T Cell Isolation Kit (Miltenyi Biotec #130-097-095, Bergisch Gladbach, Germany) according to manufacturer's instructions.
Unless otherwise noted, carboxyfluorescein succinimidyl ester (CFSE) labeling was performed as described by Quah and Parish16, 17. Briefly, 50 μg carboxyfluorescein diacetate succinimidyl ester (CFDA-SE) was reconstituted in 18 μL DMSO (CellTrace CFSE Cell Proliferation Kit, Thermo Fisher Scientific #C34554) to create a 5 mM stock immediately prior to labeling. Cells were resuspended in 1 mL warm CCM and transferred into a new 15 mL Falcon tube lying horizontally. A drop containing 110 μL warm PBS was placed on a side of the tube, and 17.6 μL of 5 mM CFDA-SE was diluted into the drop. The tube was then quickly capped and turned upside right while being vortexed gently, yielding a final concentration of 80 μM CFDA-SE. Cells were incubated for 5 minutes at room temperature, quenched by adding 9 mL warm CCM, and washed twice with 10 mL warm CCM. When only naïve T cells were labeled with CFSE, they were combined with the CFSE-negative PBMC fraction devoid of naïve T cells after labeling to restore original cell proportions. All centrifuging steps for live cells were done for 5 minutes at 250 g, 37° C. CFSE and labeled cells were protected from light throughout the experiment. During protocol optimization, the above labeling protocol for 0.1-10×10^7 cells and CFSE concentrations in range of 0.2 μM to 320 μM was tested. Long-term cell viability and proliferation were assessed. Manufacturer's labeling protocol for CFSE concentrations 0.2 μM to 20 μM, as well as other CFSE suppliers (BIOLEGEND® #422701, San Diego, CA, USA) were also tested.
Samples were processed as previously known in the art. To stain cells for viability, cisplatin (SIGMA-ALDRICH® #P4394) was reconstituted to 100 mM in DMSO and incubated at 37° C. for 3 days to prepare a stock solution, which was then stored in aliquots at −20° C. Cell pellets were resuspended in 1 mL PBS containing 0.5 μM cisplatin, gently vortexed, incubated 5 minutes at room temperature, quenched with 3 mL CCM, pelleted, and resuspended in 1 mL CCM. […] All centrifuging steps for fixed cells were done for 5 minutes at 600×g, 4° C. Cell pellets were optionally stored at −80° C.
(§1) Mass cytometry data were normalized and debarcoded.

[2] = system: pRPS6; settings: gated on CFSE+CD8+ T cells
Source text: as §1

[3] = system: human naïve CFSE+ CD8+ T cells; test: Naïve CD8+ T-cell differentiation in REP: skewing between TSCM-like and dysfunctional phenotype (mass cytometry, force-directed graph, DPT); settings: for CD45RA^Low CD25^High (%) / CD45RA^High CD25^Low (%): gated on CFSE^+CD8^+T cells; for CD45RA^Low CD25^High (%): path toward dysfunctional phenotype; for CD45RA^High CD25^Low (%): path towards TSCM-like phenotype; for CD45RA High CD25 Low (%) / CD45RA Low CD25 High (%): gated on CFSE+CD8+ T cells
[4] = REP day 3, among CD45RA^High CD25^Low CFSE^+CD8^+T cells
[5] = REP day 3, among CD45RA^Low CD25^High CFSE^+CD8^+T cells
[6] = REP day 4, among CD45RA^High CD25^Low CFSE^+CD8^+T cells
[7] = REP day 4, among CD45RA^Low CD25^High CFSE^+CD8^+T cells
[8] = REP day 5, among CD45RA^High CD25^Low CFSE^+CD8^+T cells
[9] = REP day 5, among CD45RA^Low CD25^High CFSE^+CD8^+T cells
[10] = REP day 7, among CD45RA^High CD25^Low CFSE^+CD8^+T cells
[11] = REP day 7, among CD45RA^Low CD25^High CFSE^+CD8^+T cells
[12] = in CD45RA High CD25 Low subset of CFSE+CD8+ T cells, REP day 3
[13] = in CD45RA High CD25 Low subset of CFSE+CD8+ T cells, REP day 4
[14] = in CD45RA High CD25 Low subset of CFSE+CD8+ T cells, REP day 5
[15] = in CD45RA High CD25 Low subset of CFSE+CD8+ T cells, REP day 7
[16] = in CD45RA Low CD25 High subset of CFSE+CD8+ T cells, REP day 3
[17] = in CD45RA Low CD25 High subset of CFSE+CD8+ T cells, REP day 4
[18] = in CD45RA Low CD25 High subset of CFSE+CD8+ T cells, REP day 5
[19] = in CD45RA Low CD25 High subset of CFSE+CD8+ T cells, REP day 7

Which results are given for CO[C@H]1C[C@@H]2CC[C@@H](C)[C@@](O)(O2)C(=O)C(=O)N2CCCC[C@H]2C(=O)O[C@H]([C@H](C)C[C@@H]2CC[C@@H](O)[C@H](OC)C2)CC(=O)[C@H](C)/C=C(\C)[C@@H](O)[C@@H](OC)C(=O)[C@H](C)C[C@H](C)/C=C/C=C/C=C/1C [Rapamycin, rapamycin]?
Apoptotic cells (% cPARP+ cells in CFSE+ CD8+ T cells) ([1]; REP day 3): 0.43%; Apoptotic cells (% cPARP^+ cells in CFSE^+ CD8^+T cells) ([1]; REP day 3): 0.43%; CFSE+ CD8+ T cells (%) ([1]; REP day 3): 2.14%; Dead cells (1% cisplatin+ cells in CFSE+ CD8+ T cells) ([1]; REP day 3): 0.26%; Dead cells (1% cisplatin^+ cells in CFSE^+ CD8^+ T cells) ([1]; REP day 3): 0.26%; Total CFSE+ CD8+ T cells ([1]; REP day 3): 0.14; Total CFSE^+ CD8^+ T cells ([1]; REP day 3): 0.14; Total cells (×10^6) ([1]; REP day 3): 6.48 ×10^6; Apoptotic Cell (%) [1, 4]: 0.53%; Dead cells (%) [1, 4]: 0.00%; Apoptotic Cells (%) [1, 5]: 0.31%; Dead cells (%) [1, 5]: 0.63%; CFSE^+ CD8^+ T cells (%)^* ([1]; REP day 3): 2.14%; Apoptotic cells (% cPARP+ cells in CFSE+ CD8+ T cells) ([1]; REP day 4): 0.85%; Apoptotic cells (% cPARP^+ cells in CFSE^+ CD8^+T cells) ([1]; REP day 4): 0.85%; CFSE+ CD8+ T cells (%) ([1]; REP day 4): 3.07%; Dead cells (1% cisplatin+ cells in CFSE+ CD8+ T cells) ([1]; REP day 4): 0.38%; Dead cells (1% cisplatin^+ cells in CFSE^+ CD8^+ T cells) ([1]; REP day 4): 0.38%; Total CFSE+ CD8+ T cells ([1]; REP day 4): 0.31; Total CFSE^+ CD8^+ T cells ([1]; REP day 4): 0.31; Total cells (×10^6) ([1]; REP day 4): 9.96 ×10^6; Apoptotic Cell (%) [1, 6]: 0.59%; Dead cells (%) [1, 6]: 0.39%; Apoptotic Cells (%) [1, 7]: 0.84%; Dead cells (%) [1, 7]: 0.21%; CFSE^+ CD8^+ T cells (%)^* ([1]; REP day 4): 3.07%; Apoptotic cells (% cPARP+ cells in CFSE+ CD8+ T cells) ([1]; REP day 5): 1.07%; Apoptotic cells (% cPARP^+ cells in CFSE^+ CD8^+T cells) ([1]; REP day 5): 1.07%; CFSE+ CD8+ T cells (%) ([1]; REP day 5): 5.14%; Dead cells (1% cisplatin+ cells in CFSE+ CD8+ T cells) ([1]; REP day 5): 0.21%; Dead cells (1% cisplatin^+ cells in CFSE^+ CD8^+ T cells) ([1]; REP day 5): 0.21%; Total CFSE+ CD8+ T cells ([1]; REP day 5): 0.71; Total CFSE^+ CD8^+ T cells ([1]; REP day 5): 0.71; Total cells (×10^6) ([1]; REP day 5): 13.91 ×10^6; Apoptotic Cell (%) [1, 8]: 2.33%; Dead cells (%) [1, 8]: 0.00%; Apoptotic Cells (%) [1, 9]: 0.79%; Dead cells (%) [1, 9]: 0.24%; CFSE^+ CD8^+ T cells (%)^* ([1]; REP day 5): 5.14%; Apoptotic cells (% cPARP+ cells in CFSE+ CD8+ T cells) ([1]; REP day 7): 2.16%; Apoptotic cells (% cPARP^+ cells in CFSE^+ CD8^+T cells) ([1]; REP day 7): 2.16%; CFSE+ CD8+ T cells (%) ([1]; REP day 7): 6.49%; Dead cells (1% cisplatin+ cells in CFSE+ CD8+ T cells) ([1]; REP day 7): 1.13%; Dead cells (1% cisplatin^+ cells in CFSE^+ CD8^+ T cells) ([1]; REP day 7): 1.13%; Total CFSE+ CD8+ T cells ([1]; REP day 7): 1.82; Total CFSE^+ CD8^+ T cells ([1]; REP day 7): 1.82; Total cells (×10^6) ([1]; REP day 7): 28.03 ×10^6; Apoptotic Cell (%) [1, 10]: 3.47%; Dead cells (%) [1, 10]: 0.69%; Apoptotic Cells (%) [1, 11]: 1.15%; Dead cells (%) [1, 11]: 0.72%; CFSE^+ CD8^+ T cells (%)^* ([1]; REP day 7): 6.49%; Apoptotic Cell (%) [1, 12]: 0.53%; Dead cells (%) [1, 12]: 0.00%; Apoptotic Cell (%) [1, 13]: 0.59%; Dead cells (%) [1, 13]: 0.39%; Apoptotic Cell (%) [1, 14]: 2.33%; Dead cells (%) [1, 14]: 0.00%; Apoptotic Cell (%) [1, 15]: 3.47%; Dead cells (%) [1, 15]: 0.69%; Apoptotic Cells (%) [1, 16]: 0.31%; Dead cells (%) [1, 16]: 0.63%; Apoptotic Cells (%) [1, 17]: 0.84%; Dead cells (%) [1, 17]: 0.21%; Apoptotic Cells (%) [1, 18]: 0.79%; Dead cells (%) [1, 18]: 0.24%; Apoptotic Cells (%) [1, 19]: 1.15%; Dead cells (%) [1, 19]: 0.72%; pRPS6+ (%) (first column, c2) ([2]; REP day 3): 99.49%; pRPS6+ (%) (second column, c5) ([2]; REP day 3): 0.51%; pRPS6+ (%) (first column, c2) ([2]; REP day 4): 99.15%; pRPS6+ (%) (second column, c5) ([2]; REP day 4): 0.85%; pRPS6+ (%) (first column, c2) ([2]; REP day 5): 99.28%; pRPS6+ (%) (second column, c5) ([2]; REP day 5): 0.72%; pRPS6+ (%) (first column, c2) ([2]; REP day 7): 99.44%; pRPS6+ (%) (second column, c5) ([2]; REP day 7): 0.56%; CD45RA^Low CD25^High (%) ([3]; REP day 3): 27.34%; CD45RA^High CD25^Low (%) ([3]; REP day 3): 16.11%; CD45RA^Low CD25^High (%) ([3]; REP day 4): 30.19%; CD45RA^High CD25^Low (%) ([3]; REP day 4): 16.03%; CD45RA^Low CD25^High (%) ([3]; REP day 5): 43.80%; CD45RA^High CD25^Low (%) ([3]; REP day 5): 8.87%; CD45RA^Low CD25^High (%) ([3]; REP day 7): 21.79%; CD45RA^High CD25^Low (%) ([3]; REP day 7): 9.00%; CD45RA High CD25 Low (%) ([3]; REP day 3): 16.11%; CD45RA Low CD25 High (%) ([3]; REP day 3): 27.34%; CD45RA High CD25 Low (%) ([3]; REP day 4): 16.03%; CD45RA Low CD25 High (%) ([3]; REP day 4): 30.19%; CD45RA High CD25 Low (%) ([3]; REP day 5): 8.87%; CD45RA Low CD25 High (%) ([3]; REP day 5): 43.80%; CD45RA High CD25 Low (%) ([3]; REP day 7): 9.00%; CD45RA Low CD25 High (%) ([3]; REP day 7): 21.79%

From patent US12024716B2, “Compositions and methods of expansion of T cell populations” (THE BOARD OF TRUSTEES OF THE LELAND STANFORD JUNIOR …, priority 2018, dated 2024)
